The nature of data set [1]: Selectivity index, ratio of IC50 for hTERT-RPE1 cells to IC50 for human HepG2 cells. As to conditions: hTERT-RPE1 cells versus HepG2 cells, read-out: Ratio IC50. The format is toxicity.
Data set [2] in a line: Selectivity index, ratio of IC50 for hTERT-RPE1 cells to IC50 for human CCRF-CEM cells. It is filed as toxicity. As to conditions: hTERT-RPE1 cells versus CCRF-CEM cells, read-out: Ratio IC50.
The test system of data set [3] is hTERT-BJ. Nature of the data set: Cytotoxicity against hTERT-BJ cells at 50 uM after 48 hrs by resazurin dye-based fluorescence assay relative to control. As to conditions: human. It is filed as cell-based. In general terms: The colour change of resazurin is a common sign of viable cells or microbes.
The nature of data set [4]: Selectivity index, ratio of IC50 for hTERT-BJ cells to IC50 for human HepG2 cells. The format is toxicity. The note with it: hTERT-BJ cells versus HepG2 cells, read-out: Ratio IC50.
The nature of data set [5]: Selectivity index, ratio of IC50 for hTERT-BJ cells to IC50 for human CCRF-CEM cells. The note with it: hTERT-BJ cells versus CCRF-CEM cells, read-out: Ratio IC50. The format is toxicity.
The test system of a further data set is CCRF-CEM. Description: Antiproliferative activity against human CCRF-CEM cells after 48 hrs by resazurin dye-based fluorescence assay. It is filed as functional, cell-based.
For data set [6], the system named is TERT-RPE1. Description: Cytotoxicity against hTERT-RPE1 cells at 12.50 uM after 48 hrs by resazurin dye-based fluorescence assay relative to control. The format is cell-based. As to conditions: human, tert-rpe1, 48 h, 12.5 µM.
Data set [7] is described as follows: Selectivity index, ratio of IC50 for hTERT-RPE1 cells to IC50 for human PANC1 cells. The format is toxicity. As to conditions: hTERT-RPE1 cells versus PANC1 cells, read-out: Ratio IC50.
For data set [8], the system named is hTERT-BJ. Nature of the data set: Cytotoxicity against hTERT-BJ cells after 48 hrs by resazurin dye-based fluorescence assay. The format is cell-based. As to conditions: Homo sapiens.
Another data set relates to HepG2. Description: Antiproliferative activity against human HepG2 cells after 48 hrs by resazurin dye-based fluorescence assay. The format is functional, cell-based. The note with it: HepG2, 48 h.
Data set [9] has as its system TERT-RPE1. Nature of the data set: Cytotoxicity against hTERT-RPE1 cells at 25 uM after 48 hrs by resazurin dye-based fluorescence assay relative to control. The format is cell-based. The note with it: human, tert-rpe1, 48 h.
The subject of data set [10] is hTERT-BJ. Description: Cytotoxicity against hTERT-BJ cells at 12.50 uM after 48 hrs by resazurin dye-based fluorescence assay relative to control. The format is cell-based. As to conditions: human, 12.5 µM.
Data set [11] relates to TERT-RPE1. Nature of the data set: Cytotoxicity against hTERT-RPE1 cells at 50 uM after 48 hrs by resazurin dye-based fluorescence assay relative to control. The format is cell-based. As to conditions: human, tert-rpe1, 48 h.
The test system of data set [12] is hTERT-BJ. Description: Cytotoxicity against hTERT-BJ cells at 6.25 uM after 48 hrs by resazurin dye-based fluorescence assay relative to control. The format is cell-based. The note with it: human.
Data set [13] concerns TERT-RPE1. Description: Cytotoxicity against hTERT-RPE1 cells after 48 hrs by resazurin dye-based fluorescence assay. It is filed as cell-based. As to conditions: Homo sapiens, RPE-1, 48 h.
The nature of data set [14]: Selectivity index, ratio of IC50 for hTERT-BJ cells to IC50 for human PANC1 cells. The note with it: hTERT-BJ cells versus PANC1 cells, read-out: Ratio IC50. The format is toxicity.
In another data set the test system is PANC-1. Nature of the data set: Antiproliferative activity against human PANC1 cells after 48 hrs by resazurin dye-based fluorescence assay. It is filed as functional, cell-based. As to conditions: PANC-1, 48 h.
The subject of data set [15] is hTERT-BJ. Nature of the data set: Cytotoxicity against hTERT-BJ cells at 25 uM after 48 hrs by resazurin dye-based fluorescence assay relative to control. The format is cell-based. The note with it: human.
In data set [16] the test system is TERT-RPE1. Nature of the data set: Cytotoxicity against hTERT-RPE1 cells at 6.25 uM after 48 hrs by resazurin dye-based fluorescence assay relative to control. It is filed as cell-based. As to conditions: human, tert-rpe1, 48 h.

pIC50: −log10 of the molar value.

`O=C(N/N=C/c1cccnc1)c1cc2cc(Br)ccc2oc1=O`: the selectivity ratio was above 2.63 in data set [1]; above 13.5 in [2]; above 2.63 in [4]; above 13.5 in data set [5]; above 5.99 in [7]; above 5.99 in data set [14]. The Activity is 2.33% in the data set on hTERT-BJ [3]; 12.55% in the data set with TERT-RPE1 [6]; 25.4% in the data set with TERT-RPE1 [9]; 0.78% in the data set with hTERT-BJ [10]; 34.12% in the data set with TERT-RPE1 [11]; 0.86% with hTERT-BJ [12]. Further, the Activity in the data set with hTERT-BJ [15] is on record as 1.7%; in the data set with TERT-RPE1 [16], 6.64%. Also, the pIC50 was 5.43 in the data set with CCRF-CEM; below 4.30 with hTERT-BJ [8]; 4.72 in the data set with HepG2; below 4.30 in the data set on TERT-RPE1 [13]; 5.08 in the data set on PANC-1.
In the case of `O=C(N/N=C/c1ccncc1)c1cc2ccccc2oc1=O`, the selectivity ratio is above 2.91 in data set [1]; above 16.1 in data set [2]; above 2.91 in data set [4]; above 16.1 in data set [5]; above 5.13 in [7]; above 5.13 in data set [14]. The Activity with hTERT-BJ [3] was 1.73%; in the data set on TERT-RPE1 [6], 4.08%; in the data set on TERT-RPE1 [9] it was 12.2%; in the data set with hTERT-BJ [10], 1.23%; with TERT-RPE1 [11], 13.73%; in the data set with hTERT-BJ [12], 0.6%. The values for the Activity in the data set with hTERT-BJ [15] and in the data set on TERT-RPE1 [16] were 3.9% and 0.65%, respectively. Further, the pIC50 was 5.51 in the data set on CCRF-CEM; below 4.30 with hTERT-BJ [8]; 4.77 with HepG2; below 4.30 in the data set with TERT-RPE1 [13]; 5.01 in the data set with PANC-1.
`CCOc1ccc(NC(=O)c2cc3ccccc3oc2=O)cc1`: the selectivity ratio in data set [1] was above 4.83; in [2] it was above 2.79; in [4], above 4.83; in data set [5], above 2.79; in [7], above 3.74; in [14], above 3.74. Moreover, the Activity in the data set with hTERT-BJ [3] is listed as 3.08%; with TERT-RPE1 [6], 12.77%; in the data set on TERT-RPE1 [9], 22.19%; in the data set on hTERT-BJ [10] it was 2.4%; with TERT-RPE1 [11], 23.27%; in the data set with hTERT-BJ [12], 0.59%. The Activity in the data set on hTERT-BJ [15] worked out at 2.82%; in the data set on TERT-RPE1 [16] it was 7.48%. For the same compound, the pIC50 is 4.75 in the data set with CCRF-CEM; below 4.30 with hTERT-BJ [8]; 4.98 in the data set with HepG2; below 4.30 with TERT-RPE1 [13]; 4.87 with PANC-1.
`Cc1noc(NS(=O)(=O)c2ccc(NC(=O)c3cc4ccccc4oc3=O)cc2)c1C`: the selectivity ratio is above 2.09 in data set [1]; above 1.88 in data set [2]; above 2.09 in data set [4]; above 1.88 in data set [5]; above 2.51 in data set [7]; above 2.51 in data set [14]. Besides, the Activity turned out to be 26.66% with hTERT-BJ [3]; 13.72% with TERT-RPE1 [6]; 33.32% with TERT-RPE1 [9]; 10.4% in the data set on hTERT-BJ [10]; 47.61% in the data set with TERT-RPE1 [11]; 8.49% in the data set on hTERT-BJ [12]. Besides, the Activity in the data set on hTERT-BJ [15] is on record as 15.88%; in the data set on TERT-RPE1 [16] it was 9.28%. Also, the pIC50 is 4.57 in the data set with CCRF-CEM; below 4.30 in the data set on hTERT-BJ [8]; 4.62 in the data set with HepG2; below 4.30 in the data set on TERT-RPE1 [13]; 4.70 in the data set on PANC-1.

For orientation: pIC50 means −log10 of the IC50, conventionally taken in molar units. Lower therefore signals a large IC50.

These data come from ChEMBL document CHEMBL4152218, “Novel hydrazide-hydrazone and amide substituted coumarin derivatives: Synthesis, cytotoxicity screening, microarray, radiolabeling and in vivo pharmacokinetic studies” (Eur J Med Chem, 2018).
